Experimental findings from the OligoGym collection are described below.

Several values for one entry are separate records, joined by “and”; a condition that tells them apart may be missing. Equal values may be shown once. After the bases stand the sugars from the 5' end (letter, count) and the backbone: PS all phosphorothioate, else s phosphorothioate and o phosphodiester by linkage. Methylation of C is not given here. k = constrained ethyl (cEt); d = 2'-deoxy (DNA)

The target of the series is MALAT1. The settings on record: ASO, A431, 0.005 µM.

CGCCTCTTAAAGCACT (sugars k3 d10 k3, PS): the target mRNA inhibition is -12%. Next, AGGATGTATATAGTTC (sugars k3 d10 k3, PS): 2%; TACTGGTTTAAGTTGG (sugars k3 d10 k3, PS): 67% and 77%; TTACTGGTTTAAGTTG (sugars k3 d10 k3, PS): 24%. Under CACTACTCCAAGCATT (sugars k3 d10 k3, PS) stands 23%; under GTTAACATGCAAACTT (sugars k3 d10 k3, PS), 13%.

Regarding GTTTAAGTCACCTTCA (sugars k3 d10 k3, PS), the target mRNA inhibition is 63% and 38%.

Consider TTGCCCGCTTTCCCCC (sugars k3 d10 k3, PS), for which the target mRNA inhibition was found to be 19%. Under TGAACTATCACAATTC (sugars k3 d10 k3, PS) stands 24%; under TGGAACTTGAATGCAA (sugars k3 d10 k3, PS), 10%; under ATGCTTATTCCCCAAT (sugars k3 d10 k3, PS), 52%. Take CACCAAATCGCACTGG (sugars k3 d10 k3, PS): the target mRNA inhibition was -7%. Next, GAAAAGTGGTTGCCCG (sugars k3 d10 k3, PS): 32%; CCTGGTTAGGTATGAG (sugars k3 d10 k3, PS): 19%. Under CCAATACTTGTCTTAG (sugars k3 d10 k3, PS) stands 64% and 52%; under CTCTAAGATTGTAAGC (sugars k3 d10 k3, PS), 16%. Next, CCTTCCGCCGCCTTTG (sugars k3 d10 k3, PS): 21%; AGTCAGGGACACACCC (sugars k3 d10 k3, PS): -16%. In the case of CTTTAGGATTCTAGAC (sugars k3 d10 k3, PS), the target mRNA inhibition was 7%. Under CTCACATGCCAGTTAC (sugars k3 d10 k3, PS) stands 51%; under GGCTCGATGGAAAAAT (sugars k3 d10 k3, PS), 33%. Next, AAACATTGCCTACCAC (sugars k3 d10 k3, PS): -9%; GTATAGTTTACCACCT (sugars k3 d10 k3, PS): 9%; ATGGAGGTATGACATA (sugars k3 d10 k3, PS): 20%.

Consider TACTTGCCAACAGAAC (sugars k3 d10 k3, PS), for which the target mRNA inhibition worked out at 19%.

As for CTAACCCAGTTTGTCA (sugars k3 d10 k3, PS), the target mRNA inhibition amounted to 35%. In the case of AACAGGTCATCTATTC (sugars k3 d10 k3, PS), the target mRNA inhibition came out at 33%.

In the case of CAGCGGGATCAGAACA (sugars k3 d10 k3, PS), the target mRNA inhibition worked out at 23%. Under AAACCTGGGCTCCCGG (sugars k3 d10 k3, PS) stands 20%. Regarding CAGGAACAAGTCCTAC (sugars k3 d10 k3, PS), the target mRNA inhibition is 19%.

In the case of CAATGGACATCTCTTC (sugars k3 d10 k3, PS), the target mRNA inhibition worked out at 49%. Under CAGTGCTATTTTATCC (sugars k3 d10 k3, PS) stands 78% and 70%; under AACCCCAAGACCAAAC (sugars k3 d10 k3, PS), 11%. Next, ACTTGGAAGTTGATAT (sugars k3 d10 k3, PS): 4%. Under CACAGCGGTACACTCC (sugars k3 d10 k3, PS) stands 40%; under GTACACTCCTTCTCTA (sugars k3 d10 k3, PS), 17%; under CAGACCAACCCCCAGT (sugars k3 d10 k3, PS), -7%. Turning to TTATGGATCATGCCCA (sugars k3 d10 k3, PS), the target mRNA inhibition was 28%. With CTATTGTCCCATAACT (sugars k3 d10 k3, PS), the target mRNA inhibition worked out at 38%. AACTTGGAAGTTGATA (sugars k3 d10 k3, PS): the target mRNA inhibition was found to be 19%.

Take TATATAAGGTCAATAG (sugars k3 d10 k3, PS): the target mRNA inhibition is 5%. Under GTCCTTTACAGAAGTC (sugars k3 d10 k3, PS) stands 35%. Under ATACTTGTCTTAGCTT (sugars k3 d10 k3, PS) stands 60% and 75% and 50%. Take GAATACTCTTCCAAGG (sugars k3 d10 k3, PS): the target mRNA inhibition is 16%.

As for AGCATACCTTAACATC (sugars k3 d10 k3, PS), the target mRNA inhibition is 19%. Take CATCAAACACTGGTTC (sugars k3 d10 k3, PS): the target mRNA inhibition was 14%. Under TTGTTCGAGAAATCGG (sugars k3 d10 k3, PS) stands 5%; under TCTCATTTATTTCGGC (sugars k3 d10 k3, PS), 79% and 93%; under TGAGTATGCTGATAAA (sugars k3 d10 k3, PS), 41%. For the sequence GCGGTACACTCCTTCT (sugars k3 d10 k3, PS), the target mRNA inhibition came out at 28%. For the sequence GCCCCCCACGGCCCGC (sugars k3 d10 k3, PS), the target mRNA inhibition is 10%.

Regarding CTTCTGGAAAAGCTAG (sugars k3 d10 k3, PS), the target mRNA inhibition is 8%. Under CTTACTTGATAATACA (sugars k3 d10 k3, PS) stands 35%; under AACAATTACCTAAACC (sugars k3 d10 k3, PS), 16%. Next, AAGAGCATTGGAGATC (sugars k3 d10 k3, PS): 33%; AGGCAAATTAATGGCC (sugars k3 d10 k3, PS): 8%; TGTTAAGACCATCCCA (sugars k3 d10 k3, PS): 9%.

As for TGATCTGACTTTGTAT (sugars k3 d10 k3, PS), the target mRNA inhibition stood at 47%. Under AAGGCTCCATGGTTGT (sugars k3 d10 k3, PS) stands 32%; under CTCATACACTCACTAG (sugars k3 d10 k3, PS), 0%; under TTATTCCCCAATGGAG (sugars k3 d10 k3, PS), 18%. As to TCCTTCGGATGCTTCA (sugars k3 d10 k3, PS), the target mRNA inhibition stood at 56%. With AACCACAACAATTTAG (sugars k3 d10 k3, PS), the target mRNA inhibition was 16%. Next, GCTACCATCAGAAGAA (sugars k3 d10 k3, PS): 22%; ACTGAACTGTTTAAAC (sugars k3 d10 k3, PS): 6%; AATTACCTAAACCCAC (sugars k3 d10 k3, PS): 0%.

For CACTGTCAATTTATAG (sugars k3 d10 k3, PS), the target mRNA inhibition is 19%. Under TGTCTAAGAGGTTATT (sugars k3 d10 k3, PS) stands 10%; under TACTATTGTCCCATAA (sugars k3 d10 k3, PS), 22%; under CAGTTGCCGCCAGCCC (sugars k3 d10 k3, PS), -3%. Next, TAGTAACCTATTGACT (sugars k3 d10 k3, PS): -36%; TGTTAACAATTTGCAG (sugars k3 d10 k3, PS): 20%. Under TACTCCAAGCATTGGG (sugars k3 d10 k3, PS) stands 0%. In the case of GATTCTAACAGCACAT (sugars k3 d10 k3, PS), the target mRNA inhibition is 31%. Next, CATCACCAAATTGCAC (sugars k3 d10 k3, PS): 28%; TTCAACTGGAAGCTCC (sugars k3 d10 k3, PS): 58% and 57%.

Consider AATCACTACTCCAAGC (sugars k3 d10 k3, PS), for which the target mRNA inhibition came out at 29%.

Turning to AGCCAGTCAGGGACAC (sugars k3 d10 k3, PS), the target mRNA inhibition is -3%. For CTGCGCTGGCTGCCTC (sugars k3 d10 k3, PS), the target mRNA inhibition amounted to 30%.

Take AGATATTGTGCTGTTA (sugars k3 d10 k3, PS): the target mRNA inhibition was 17%.

With AGCAGTAGGGCTTCTC (sugars k3 d10 k3, PS), the target mRNA inhibition was 3%. Next, GTTACCTTGAAACCGA (sugars k3 d10 k3, PS): 47%; CTAACAGCACATCATG (sugars k3 d10 k3, PS): 32%; CCAACTAAGCGAATGG (sugars k3 d10 k3, PS): 18%. Under AGACTAAAGGCTTCAG (sugars k3 d10 k3, PS) stands 12%; under CCCAGTTCAATACTTT (sugars k3 d10 k3, PS), 25%. Take AGTACGAAACTCCCCC (sugars k3 d10 k3, PS): the target mRNA inhibition turned out to be 28%. Consider TGCCTTAAAGTTACAT (sugars k3 d10 k3, PS), for which the target mRNA inhibition turned out to be 19%. Under TTACACCTTGAGTCAT (sugars k3 d10 k3, PS) stands 21%; under TATTAAGAGCTGCTAT (sugars k3 d10 k3, PS), 25%; under GCAGGCTATTACCTGA (sugars k3 d10 k3, PS), 19%. Under GCTCGATGGAAAAATT (sugars k3 d10 k3, PS) stands 10%. Under CAGACCTTCTGAACCG (sugars k3 d10 k3, PS) stands 10%; under TGTATATAGTTCAAAG (sugars k3 d10 k3, PS), 9%; under CTGCGGCCCCCCAGTT (sugars k3 d10 k3, PS), 25%. TGCAGGCAAATTAATG (sugars k3 d10 k3, PS): the target mRNA inhibition is 11%. Next, TGAGGGACAGTAGGTA (sugars k3 d10 k3, PS): 18%; GGCCAGACCAACCCCC (sugars k3 d10 k3, PS): 3%; GCATACCTTAACATCT (sugars k3 d10 k3, PS): 54% and 44%.
